“Also recorded” adds a separate entry of the source. Like-named read-outs stand apart in the source and are kept apart here.
How the values were obtained:
[1] = tested on: L. major LV39 WT promastigotes; test: Detergent resistant membrane fractions (insoluble GP63), WT promastigotes; format: cell-based, Leishmania major
Description: (§1) Detergent resistant membrane fractions (DRMs) were prepared using Triton X-100 from L. major promastigotes as previously described [Zhang, et al., 2003. Such DRMs are usually enriched for raft-associated materials and have been used to characterize rafts [London, et al., 2000; Brown, et al., 1998]. A typical marker for a raft in Leishmania parasites is GP63, a GPI-anchored metalloprotease, which can be detected from DRM samples by western-blot [Zhang, et al., 2003].
(§2) Here WT and spt2^− parasites were grown in various concentrations of ITZ (0.001 nM to 1 μM) or CLT (10 nM to 5 μM). Effects of ITZ and CLT on growth, sterol composition and DRM were analyzed after 48 hours. Basically, culture densities were determined using a particle counter and drugs' effects on growth were assessed in comparison to control cells (no drug); sterol lipids were extracted and analyzed by GC/MS and the percentage of 14-methylfecosterol (among all detectable sterol lipids) was used to reflect changes in sterol composition (see Table 2). […]
(§3) Detergent resistant membrane fractions (DRMs) were isolated and a western blot with a monoclonal antibody again Leishmania GP63 #235 was performed as previously described [Zhang, et al., 2003]. Percentages of GP63 in soluble and insoluble fraction after extractions at 4° C. were determined using a Fuji FLA5000 phosphoimager.

[2] = tested on: L. major spt2^− promastigotes; test: Detergent resistant membrane fractions (insoluble GP63), spt2^− promastigotes; format: cell-based, Leishmania major
Description: as §1, §2, §3

[3] = tested on: L. major LV39 WT promastigotes; test: microbe, parasite or virus in culture; format: cell-based, Leishmania major; details: for EC50: Leishmania major
Description: (§4) Log phase L. major LV39 WT and spt2 promastigotes were inoculated at 1.0×10^5 cells/ml and culture densities were determined 48 hours later.
(§5) Wild type (WT) L. major LV39 clone 5 (Rho/SU/59/P), FV1 (MOHM/IL/80/Friedlin virulent clone 1), spt2^− (Δspt2::HYG/Dspt2::PAC), ads1^− (Δads1::HYG/Dads1::SAT), and spt2^−/+SPT2 (Δspt2::HYG/Dspt2::PAC/+pXG-SPT2) cells were grown in M199 with 10% FBS and supplements as described [Zhang, et al., 2003; Kapler, et al., 1990]. For growth inhibition assays, promastigotes were inoculated at 1.0×10^5 cells/ml (in T25 flasks, 5 ml of medium per flask) in various concentrations of drugs. All cultures contained equivalent amount of DMSO or methanol (0.1% or less, from drug stocks). After 48 or 96 (for ads1^− only) hours, culture densities were determined using a Coulter counter (Z1, Beckman) and effects of drugs on growth were assessed in relative to cultures grown in the absence of drugs.
A classical isobologram was constructed by plotting EC50s of drugs either alone or in combination.

[4] = tested on: L. major spt2^− promastigotes; test: microbe, parasite or virus in culture; format: cell-based, Leishmania major; details: for EC50: Leishmania major, 48 h, read-out: EC50 in spt2^−; for EC50 (WT)/EC50 (spt2^−): ratio
Description: as §4, §5

[5] = tested on: L. major LV39 WT promastigotes; test: Composition of free sterols by GC/MS, WT promastigotes; format: cell-based, Leishmania major; details: 48 hours
Description: (§6) Log phase L. major LV39 WT and spt2^− promastigotes were grown in the presence or absence of ITZ or CLT. Culture densities were determined 48 hours later and total lipids were extracted and the composition of free sterols was determined by GC/MS as described in Materials and Methods. ND: not detectable. Each experiment was repeated at least 3 times and results from one representative set were shown.
(§7) Here WT and spt2^− parasites were grown in various concentrations of ITZ (0.001 nM to 1 μM) or CLT (10 nM to 5 μM). Effects of ITZ and CLT on growth, sterol composition and DRM were analyzed after 48 hours. Basically, culture densities were determined using a particle counter and drugs' effects on growth were assessed in comparison to control cells (no drug); sterol lipids were extracted and analyzed by GC/MS and the percentage of 14-methylfecosterol (among all detectable sterol lipids) was used to reflect changes in sterol composition (see Table 2). DRMs were also isolated and the percentage of GP63 that were insoluble at 4° C. was used as an indicator for the integrity of DRM (see FIG. 2). Two to four independent experiments were performed and the averaged results were plotted in FIG. 3.
(§8) Total lipids were extracted using the Folch's method [Folch, et al., 1957]. Briefly, promastigotes were harvested by centrifugation and washed once with PBS. Pellets were resuspended in chloroform:methanol (2:1) at 1.0×10^8 cells/ml with the addition of cholesta-3,5-diene (Sigma-Aldrich, FW 368.7) at 0.5 mg/10^8 cells (6.6×10^7/cell). After vortexing for 30 s, cell debris was removed by centrifugation (1000 g for 10 min) and samples were washed with 0.2 volume of 0.9% NaCl. After centrifugation, supernatants were removed and the organic phase solutions were dried under a stream of nitrogen. Samples were then dissolved in chloroform:methanol (1:2) at 1.0×10^9 cells/ml.
(§9) Electron impact gas chromatography/mass spectrometry (GC/MS) analyses of sterol lipids were performed on a Finnigan (San Jose, Calif.) SSQ-7000 single-stage quadrupole mass spectrometer with a Varian (Walnut Creek, Calif.) 3400 GC, which is controlled by Finnigan ICIS software operated on a DEC alpha station. The extracts in solution […] were injected in a splitless mode and analyzed by GC on a Restek (Bellefonte, Pa.) RTX-5 column (15 m, 0.33 mm id, […]). The initial temperature of GC was set at 80° C. for 1 min, increased to 220° C. at a rate of 50° C./min, and then raised to a final temperature of 280° C. at a rate of 10° C./min. The temperatures of the injector, transfer line of the GC column, and of the ion-source were set at 280° C., 280° C., and 240° C., respectively. The full scan mass spectra (50 to 500 Dalton) were acquired at a rate of 1 scan/0.25 Sec.

[6] = tested on: L. major spt2^− promastigotes; test: Composition of free sterols by GC/MS, spt2^− promastigotes; format: cell-based, Leishmania major; details: 48 hours
Description: as §6, §7, §8, §9

[7] = tested on: Leishmania amastigotes growing in murine macrophages; test: Amastigotes growing in murine macrophages; format: cell-based; details: preliminary results, data not shown
[8] = tested on: L. major ads1^− promastigotes; test: Growth inhibition assay, EPL-null ads1^− mutant versus FV1 WT; format: cell-based, Leishmania major; details: 96 hours for ads1^−
Description: as §5

[9] = tested on: L. major spt2^− promastigotes; test: Flagellar localization of FcaBP-HA (immunofluorescence), spt2^− promastigotes; format: cell-based, Leishmania major; details: concentration 5˜10 times of EC50 for 20 hours, data not shown
[10] = 48 h, LV39 WT promastigotes, 48 hours, read-out: EC50 in WT

## CCC(C)n1ncn(-c2ccc(N3CCN(c4ccc(OCC5COC(Cn6cncn6)(c6ccc(Cl)cc6Cl)O5)cc4)CC3)cc2)c1=O (centres unmarked) [Itraconazole]
[1]; WT parasites
  ITZ concentration significantly inhibiting growth and DRM stability in WT: more than 100 nM
[1]; WT, 1˜10 nM ITZ, 4° C., 50˜55% in control cells
  GP63 in DRM: 40˜55%
[2]; spt2^− parasites
  ITZ concentration causing significant reduction of insoluble GP63 at 4° C.: higher than 1 nM
[2]; spt2^−, 1˜10 nM ITZ, 4° C., 45˜50% in control cells
  GP63 in DRM: 24˜28%
[3]; [10]
  EC50: ~1100 nM
[3]; LV39 WT grown in the presence of 10 μM MYR, read-out: EC50 for ITZ in WT + 10 μM myriocin
  EC50: ~4.6 nM
[3]; read-out: EC50 of ITZ in combination with 25 μM MYR
  EC50: 0.92 nM
[3]; read-out: EC50 of ITZ in combination with […] MYR
  EC50: 131 nM
[3]; WT + 1 nM ITZ, 48 hours
  Growth (%): 91.5%
[3]; WT + 5 nM ITZ, 48 hours
  Growth (%): 81.6%
[3]; WT, 1˜10 nM ITZ, 48 hours
  growth, % of control: 75˜95%
[4]
  EC50: 3.9 nM
  EC50 (WT)/EC50 (spt2^−): 282
[4]; spt2^− + 1 nM ITZ, 48 hours
  Growth (%): 64.6%
[4]; spt2^− + 5 nM ITZ, 48 hours
  Growth (%): 29.4%
[4]; spt2^−, 1˜10 nM ITZ, 48 hours
  proliferation, % of control: 28˜67%
[5]; WT + 1 nM ITZ
  5-dehydroepisterol (%): 9.6%
  14-methylfecosterol (%): 62.3%
  Cholesterol (%): 2.9%
  Episterol (%): 0.9%
  Ergosterol (%): 24.3%
  Total sterols/cell: 2.0 × 10^8 /cell
[5]; WT + 5 nM ITZ
  5-dehydroepisterol (%): 1.7%
  14-methylfecosterol (%): 92.2%
  Cholesterol (%): 3.2%
  Ergosterol (%): 2.9%
  Total sterols/cell: 3.3 × 10^8 /cell
[5]; WT, 1˜10 nM ITZ
  14-methylfecosterol among all sterols: 80˜92%
  endogenous sterols: 4˜6%
[6]; spt2^− + 1 nM ITZ
  5-dehydroepisterol (%): 3.7%
  14-methylfecosterol (%): 59.4%
  Cholesterol (%): 22.0%
  Episterol (%): 1.6%
  Ergosterol (%): 13.2%
  Lanosterol (%): 0.1%
  Total sterols/cell: 4.0 × 10^8 /cell
[6]; spt2^− + 5 nM ITZ
  5-dehydroepisterol (%): 2.1%
  14-methylfecosterol (%): 75.2%
  Cholesterol (%): 17.1%
  Episterol (%): 0.4%
  Ergosterol (%): 4.0%
  Lanosterol (%): 1.2%
  Total sterols/cell: 4.4 × 10^8 /cell
[6]; spt2^−, 1˜10 nM ITZ
  endogenous sterols: 4˜6%

## CCCCCCC(=O)CCCCCC/C=C/C[C@@H](O)[C@H](O)[C@@](N)(CO)C(=O)O [MYR, myriocin]
[7]
  Effect of MYR on the efficacy of ITZ on amastigotes: does not improve the efficacy of ITZ
[8]
  Sensitivity of ads1^− mutant in comparison to FV1 WT: hypersensitive
[3]; [10]
  EC50: ~55000 nM
[3]; LV39 WT, 750 nM ITZ, read-out: EC50 of MYR in combination with 750 nM ITZ
  EC50: 1500 nM
[3]; read-out: EC50 for MYR in the presence of 0.5 μM ITZ, LV39 WT, 500 nM ITZ
  EC50: ~1800 nM
[3]; read-out: EC50 of MYR in combination with 250 nM ITZ, LV39 WT, 250 nM ITZ
  EC50: 2200 nM

## CN(C/C=C/C#CC(C)(C)C)Cc1cccc2ccccc12 [Terbinafine]
[8]
  Sensitivity of ads1^− mutant in comparison to FV1 WT: very similar EC50s; also recorded: little or no selectivity
[3]; [10]
  EC50: 4300 nM
[4]
  EC50: 3300 nM
  EC50 (WT)/EC50 (spt2^−): 1.3
[4]; spt2^− versus LV39 WT
  Selectivity against spt2^− parasites (in words): did not cause the extreme hypersensitivity
[9]
  Mislocalization of FcaBP-HA: did not show such defect
